Structures can show the parent of a compound that is named as a salt.

In this assay the target is recombinant human cGAS (Homo sapiens (Human), UniProt Q8N884). Put plainly: In vitro inhibition assay of cGAS activity (cGAMP production, RapidFire mass spectrometry). The class given is biochemical. As to conditions: 10 nM recombinant human cGAS, 60 nM 75-bp dsDNA, ATP, GTP, room temperature 3 hours, read-out: IC50 (μM), In vitro inhibition assay for Compounds 1-94. The procedure: Expression and Purification of Recombinant cGAS Protein: Insert cDNA encoding full-length of human cGAS into a modified bacterial expression vector containing an in-frame His6-tag. Induce the E. coli strain BL21(DE3) harboring the plasmid with 1 mM IPTG (Isopropyl β-D-1-thiogalactopyranoside) at 18° C. overnight. Purify the His6-tagged cGAS protein over HISpur Ni-NTA resin in the presence of benzonase and RNase followed by Superdex 200 size exclusion chromatography with storage buffer (50 mM Tris-HCl pH 7.5, 300 mM NaCl, 1 mM DTT, 10% glycerol).
Sequence of recombinant human cGAS (Q8N884 whole entry): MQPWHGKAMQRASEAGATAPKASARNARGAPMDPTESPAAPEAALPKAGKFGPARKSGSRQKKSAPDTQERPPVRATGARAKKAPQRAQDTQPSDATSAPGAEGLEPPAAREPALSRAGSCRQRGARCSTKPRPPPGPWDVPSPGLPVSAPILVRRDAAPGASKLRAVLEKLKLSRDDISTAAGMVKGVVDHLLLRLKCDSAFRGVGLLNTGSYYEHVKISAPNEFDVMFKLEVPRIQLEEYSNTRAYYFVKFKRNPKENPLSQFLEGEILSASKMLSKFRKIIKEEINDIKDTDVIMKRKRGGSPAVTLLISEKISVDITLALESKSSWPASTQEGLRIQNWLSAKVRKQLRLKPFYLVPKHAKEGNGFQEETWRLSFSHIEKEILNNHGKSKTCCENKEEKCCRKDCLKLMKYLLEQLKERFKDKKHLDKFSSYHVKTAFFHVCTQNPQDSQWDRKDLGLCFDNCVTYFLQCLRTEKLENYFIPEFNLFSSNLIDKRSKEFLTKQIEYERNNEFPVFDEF
In vitro inhibition assay of cGAS activity: Add a 5 μL mixture containing 10 mM Tris-Cl pH 7.5, 50 mM NaCl, 5 mM MgCl2, 1 mM DTT, 0.01% Triton X-100, 60 nM 75-bp dsDNA, […], 50 μM GTP, 10 nM of recombinant human cGAS, and serial dilutions of a test compound in DMSO to a 384-well plate and incubate at room temperature for 3 hours. Quench the reaction by the addition of 100 μL of stop solution containing 0.1% formic acid and 0.1 μM internal standard (3′3′-difluoro cGAMP). Measure the amount of cGAMP produced by RapidFire 365 mass spectrometry and evaluate inhibitory effect of a compound by plotting percent specific inhibition of cGAMP production against log concentration of the test compound. Calculate IC50 values using a 4-parameter non-linear logistic equation (y=(S0+((SInf−S0)/(1+((qAC50/x)^nHill))))).
For orientation: IC50 means the concentration at which inhibition is half-maximal. Consider `O=C(O)CCn1cc(-c2cn[nH]c2)c2ccc(Cl)c(Cl)c21` [Example 35, 3-[6,7-Dichloro-3-(1H-pyrazol-4-yl)indol-1-yl]propanoic acid], for which the IC50 came out at 0.0737 µM.
Turning to `O=C(O)Cn1cc(-n2cc(-c3cn[nH]c3)c3ccc(Cl)c(Cl)c32)cn1` [Example 36, 2-[4-[6,7-Dichloro-3-(1H-pyrazol-4-yl)indol-1-yl]pyrazol-1-yl]acetic acid], the IC50 was found to be 0.0535 µM.
Consider `Clc1ccc2c(-c3cn[nH]c3)c3n(c2c1Cl)CCNC3` [Example 37, 6,7-Dichloro-10-(1H-pyrazol-4-yl)-1,2,3,4-tetrahydropyrazino[1,2-a]indole hydrochloride], for which the IC50 amounted to 0.09 µM.
Turning to `CC(=O)N1CCn2c(c(-c3cn[nH]c3)c3ccc(Cl)c(Cl)c32)C1` [Example 38, 1-[6,7-Dichloro-10-(1H-pyrazol-4-yl)-3,4-dihydro-1H-pyrazino[1,2-a]indol-2-yl]ethanone], the IC50 stood at 0.0404 µM.
As for `CNC(=O)N1CCn2c(c(-c3cn[nH]c3)c3ccc(Cl)c(Cl)c32)C1` [Example 39, 6,7-dichloro-N-methyl-10-(1H-pyrazol-4-yl)-3,4-dihydro-1H-pyrazino[1,2-a]indole-2-carboxamide], the figure is 0.0392 µM; as for `NS(=O)(=O)N1CCn2c(c(-c3cn[nH]c3)c3ccc(Cl)c(Cl)c32)C1` [Example 40, 6,7-dichloro-10-(1H-pyrazol-4-yl)-3,4-dihydro-1H-pyrazino[1,2-a]indole-2-sulfonamide], 0.0525 µM.
Consider `CS(=O)(=O)N1CCn2c(c(-c3cn[nH]c3)c3ccc(Cl)c(Cl)c32)C1` [Example 41, 6,7-dichloro-2-methylsulfonyl-10-(1H-pyrazol-4-yl)-3,4-dihydro-1H-pyrazino[1,2-a]indole], for which the IC50 is 0.0328 µM.
As for `COCC(=O)N1CCn2c(c(-c3cn[nH]c3)c3ccc(Cl)c(Cl)c32)C1` [Example 42, 1-[6,7-dichloro-10-(1H-pyrazol-4-yl)-3,4-dihydro-1H-pyrazino[1,2-a]indol-2-yl]-2-methoxy-ethanone], the IC50 was 0.0273 µM.
The same measure for `O=C(Cn1cncn1)N1CCn2c(c(-c3cn[nH]c3)c3ccc(Cl)c(Cl)c32)C1` [Example 43, 1-[6,7-dichloro-10-(1H-pyrazol-4-yl)-3,4-dihydro-1H-pyrazino[1,2-a]indol-2-yl]-2-(1,2,4-triazol-1-yl)ethanone]: 0.0912 µM.
As for `CN(C)C(=O)CCC(=O)N1CCn2c(c(-c3cn[nH]c3)c3ccc(Cl)c(Cl)c32)C1` [Example 44, 4-[6,7-dichloro-10-(1H-pyrazol-4-yl)-3,4-dihydro-1H-pyrazino[1,2-a]indol-2-yl]-N,N-dimethyl-4-oxo-butanamide], the IC50 worked out at 0.0534 µM.
On to `O=C(CN1CCOCC1)N1CCn2c(c(-c3cn[nH]c3)c3ccc(Cl)c(Cl)c32)C1` [Example 45, 1-[6,7-dichloro-10-(1H-pyrazol-4-yl)-3,4-dihydro-1H-pyrazino [1,2-a]indole-2-yl]-2-morpholino-ethanone], for which the IC50 worked out at 0.0834 µM.
On to `Cn1ncnc1COCC(=O)N1CCn2c(c(-c3cn[nH]c3)c3ccc(Cl)c(Cl)c32)C1` [Example 46, 1-[6,7-dichloro-10-(1H-pyrazol-4-yl)-3,4-dihydro-1H-pyrazino[1,2-a]indol-2-yl]-2-[(2-methyl-1,2,4-triazol-3-yl)methoxy]ethanone], for which the IC50 was 0.027 µM.
As to `COCc1nnc(CN2CCn3c(c(-c4cn[nH]c4)c4ccc(Cl)c(Cl)c43)C2)o1` [Example 47, 2-[[6,7-dichloro-10-(1H-pyrazol-4-yl)-3,4-dihydro-1H-pyrazino[1,2-a]indol-2-yl]methyl]-5-(methoxymethyl)-1,3,4-oxadiazole formic acid salt], the IC50 was found to be 0.0333 µM.
The same measure for `O=C(CN1CCOC1=O)N1CCn2c(c(-c3cn[nH]c3)c3ccc(Cl)c(Cl)c32)C1` [Example 48]: 0.0443 µM.
In the case of `CN1CCOC(C(=O)N2CCn3c(c(-c4cn[nH]c4)c4ccc(Cl)c(Cl)c43)C2)C1` (stereo not shown) [Example 50, [6,7-dichloro-10-(1H-pyrazol-4-yl)-3,4-dihydro-1H-pyrazino[1,2-a]indol-2-yl]-(4-methylmorpholin-2-yl)methanone], the IC50 turned out to be 0.04 µM.
On to `O=C(C1COCCO1)N1CCn2c(c(-c3cn[nH]c3)c3ccc(Cl)c(Cl)c32)C1` (stereo not shown) [Example 51, [6,7-dichloro-10-(1H-pyrazol-4-yl)-3,4-dihydro-1H-pyrazino[1,2-a]indol-2-yl]-(1,4-dioxan-2-yl)methanone], for which the IC50 was 0.0427 µM.
Regarding `CC(=O)N(C)CC(=O)N1CCn2c(c(-c3cn[nH]c3)c3ccc(Cl)c(Cl)c32)C1` [Example 52, N-[2-[6,7-dichloro-10-(1H-pyrazol-4-yl)-3,4-dihydro-1H-pyrazino[1,2-a]indol-2-yl]-2-oxo-ethyl]-N-methyl-acetamide], the IC50 was 0.0975 µM.
The same measure for `O=C(CO)N1CCn2c(c(-c3cn[nH]c3)c3ccc(Cl)c(Cl)c32)C1` [Example 53, 1-[6,7-dichloro-10-(1H-pyrazol-4-yl)-3,4-dihydro-1H-pyrazino[1,2-a]indol-2-yl]-2-hydroxy-ethanone]: 0.0268 µM; for `O=C(O)CCc1[nH]c2c(Cl)c(Cl)ccc2c1-c1cn[nH]c1` [Example 54, 3-(6,7-Dichloro-3-(1H-pyrazol-4-yl)-1H-indol-2-yl) propanoic acid]: 0.0381 µM; for `O=C1CCn2c(c(-c3cn[nH]c3)c3ccc(Cl)c(Cl)c32)N1` [Example 55, 6,7-Dichloro-10-(1H-pyrazol-4-yl)-3,4-dihydro-1H-pyrimido[1,2-a]indol-2-one]: 0.0946 µM.
Regarding `CCOc1cc(Cl)c(Cl)c2[nH]cc(-c3cn[nH]c3)c12` [Example 56, 6,7-Dichloro-4-ethoxy-3-(1H-pyrazol-4-yl)-1H-indole], the IC50 was determined as 0.0826 µM.
The same measure for `OCCOc1cc(Cl)c(Cl)c2[nH]cc(-c3cn[nH]c3)c12` [Example 57, 2-((6,7-Dichloro-3-(1H-pyrazol-4-yl)-1H-indol-4-yl)oxy)ethanol]: 0.0352 µM.
In the case of `N#CCOc1cc(Cl)c(Cl)c2[nH]cc(-c3cn[nH]c3)c12` [Example 58, 2-[[6,7-Dichloro-3-(1H-pyrazol-4-yl)-1H-indol-4-yl]oxy]acetonitrile], the IC50 is 0.0158 µM.
For `NC(=O)COc1cc(Cl)c(Cl)c2[nH]cc(-c3cn[nH]c3)c12` [Example 59, 2-[[6,7-Dichloro-3-(1H-pyrazol-4-yl)-1H-indol-4-yl]oxy]acetamide], the IC50 stood at 0.0242 µM.
With `CC(C#N)Oc1cc(Cl)c(Cl)c2[nH]cc(-c3cn[nH]c3)c12` (stereo not shown) [Example 60, 2-[[6,7-Dichloro-3-(1H-pyrazol-4-yl)-1H-indol-4-yl]oxy]propanenitrile], the IC50 worked out at 0.0855 µM.
For the compound `N#CCOc1cc(Cl)c(Cl)c2[nH]cc(-n3ccnc3)c12` [Example 61, 2-[(6,7-Dichloro-3-imidazol-1-yl-1H-indol-4-yl)oxy]acetonitrile], the IC50 turned out to be 0.0326 µM.
For the compound `OCCNc1cc(Cl)c(Cl)c2[nH]cc(-c3cn[nH]c3)c12` [Example 62, 2-[[6,7-Dichloro-3-(1H-pyrazol-4-yl)-1H-indol-4-yl]amino]ethanol], the IC50 turned out to be 0.0151 µM.
`N#CCNc1cc(Cl)c(Cl)c2[nH]cc(-c3cn[nH]c3)c12` [Example 63, 2-[[6,7-Dichloro-3-(1H-pyrazol-4-yl)-1H-indol-4-yl]amino] acetonitrile]: the IC50 was 0.0273 µM.

The record behind these values is patent US20230391786A1, “cGAS INHIBITORS” (Eli Lilly and Company, priority 2022, published 2023).
